Bridge positions count the residues as written; N and C are the ends. Square brackets hold non-standard residues; d marks the D form. Peptide text beside a SMILES is read from it. * marks the point of attachment. Tyr(3-NO2) = N[C@@H](Cc1ccc(O)c([N+](=O)[O-])c1)C(=O)O; Phe(4-COOH) = N[C@@H](Cc1ccc(C(=O)O)cc1)C(=O)O; Bip = N[C@@H](Cc1ccc(-c2ccccc2)cc1)C(=O)O; Phe(3-CN) = N#Cc1cccc(C[C@H](N)C(=O)O)c1; Phe(3-OMe) = COc1cccc(C[C@H](N)C(=O)O)c1; Phe(4-CN) = N#Cc1ccc(C[C@H](N)C(=O)O)cc1; Phe(3-Me) = Cc1cccc(C[C@H](N)C(=O)O)c1; 4Pal = N[C@@H](Cc1ccncc1)C(=O)O; Cit = NC(=O)NCCC[C@H](N)C(=O)O; Carboxymethyl = O=C(O)C*; NMeA = CN[C@@H](C)C(=O)O; Dab = NCC[C@H](N)C(=O)O; Dap = NC[C@H](N)C(=O)O
Biological target: T1, PE-labeled human PD-L1-Ig binding to Jurkat cell line over-expressing human PD-1 (Jurkat-PD-1) (Homo sapiens, UniProt Q15116)
T1 construct: expressed in transfected cells; host or cells: Jurkat
Experiment: Jurkat-PD-1 Cell Binding High-Content Screening Assay (CBA): Method 1
Conditions: Jurkat HPDL1 PD1 IC50 (Method 1), cells printed in nM, Jurkat-hPD-1 cells, PE-labeled PD-L1-Ig 20 nM final; unit nM

T1 sequence (Q15116 25-288): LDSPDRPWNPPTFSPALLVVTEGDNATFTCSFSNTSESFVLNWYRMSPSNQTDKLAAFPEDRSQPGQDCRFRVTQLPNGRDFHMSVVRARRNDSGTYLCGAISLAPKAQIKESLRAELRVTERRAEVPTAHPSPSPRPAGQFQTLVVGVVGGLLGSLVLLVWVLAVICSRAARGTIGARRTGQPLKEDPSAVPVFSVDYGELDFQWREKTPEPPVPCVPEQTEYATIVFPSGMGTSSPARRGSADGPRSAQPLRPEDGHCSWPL

Row | SMILES | IC50 [nM]
1 | CC(C)C[C@@H]1NC(=O)[C@H](CCN)NC(=O)[C@@H](CC(C)C)NC(=O)[C@H](C)N(C)C(=O)[C@H](C(C)C)NC(=O)[C@H](Cc2ccc(-c3ccccc3)cc2)NC(=O)[C@H](C(C)C)NC(=O)[C@H](Cc2c[nH]c3ccccc23)NC(=O)[C@H](CC(=O)O)NC(=O)[C@H](Cc2ccc(C(=O)O)cc2)NC(=O)[C@H](CN)NC(=O)CSC[C@@H](C(=O)N[C@@H](C)C(N)=O)NC(=O)[C@H]([C@@H](C)O)NC(=O)[C@H](C(C)C)NC1=O [Compound 1416] ({CH2CO}-[Dap][Phe(4-COOH)]DWV[Bip]V[NMeA][dL][Dab]LVTCA-NH2; thioether N-14) | 4.7

Same assay, conditions: Jurkat-hPD-1 cells, PE-labeled PD-L1-Ig 20 nM final; read-out: Jurkat HPDL1 PD1 IC50 (uM) (Method 1)

Row | IC50 [nM] | SMILES
2 | 20 | CC[C@H](C)[C@@H]1NC(=O)[C@H](Cc2ccc(-c3ccccc3)cc2)NC(=O)[C@H](C(C)C)NC(=O)[C@H](Cc2c[nH]c3ccccc23)NC(=O)[C@H](CC(=O)O)NC(=O)[C@H](Cc2ccc(C(=O)O)cc2)NC(=O)[C@H](Cc2ccncc2)NC(=O)CSC[C@@H](C(=O)N[C@@H](C)C(N)=O)NC(=O)[C@H]([C@@H](C)O)NC(=O)[C@H](C(C)C)NC(=O)[C@H](CC(C)C)NC(=O)[C@H](CCN)NC(=O)[C@@H](CC(C)C)NC(=O)[C@H](C)N(C)C1=O [Compound 1411] ({CH2CO}-[4Pal][Phe(4-COOH)]DWV[Bip]I[NMeA][dL][Dab]LVTCA-NH2; thioether N-14)
3 | 50 | CC[C@H](C)[C@@H]1NC(=O)[C@H](Cc2ccc(-c3ccccc3)cc2)NC(=O)[C@H](C(C)C)NC(=O)[C@H](Cc2c[nH]c3ccccc23)NC(=O)[C@H](CC(=O)O)NC(=O)[C@H](Cc2ccc(C(=O)O)cc2)NC(=O)[C@H](CN)NC(=O)CSC[C@@H](C(=O)N[C@@H](C)C(N)=O)NC(=O)[C@H]([C@@H](C)O)NC(=O)[C@H](C(C)C)NC(=O)[C@H](CC(C)C)NC(=O)[C@H](CCN)NC(=O)[C@@H](CC(C)C)NC(=O)[C@H](C)N(C)C1=O [Compound 1412] ({CH2CO}-[Dap][Phe(4-COOH)]DWV[Bip]I[NMeA][dL][Dab]LVTCA-NH2; thioether N-14)
4 | 30 | CC[C@H](C)[C@@H]1NC(=O)[C@H](Cc2ccc(-c3ccccc3)cc2)NC(=O)[C@H](C(C)C)NC(=O)[C@H](Cc2c[nH]c3ccccc23)NC(=O)[C@H](CC(=O)O)NC(=O)[C@H](Cc2ccc(OCC(=O)O)cc2)NC(=O)[C@H](Cc2ccncc2)NC(=O)CSC[C@@H](C(=O)N[C@@H](C)C(N)=O)NC(=O)[C@H]([C@@H](C)O)NC(=O)[C@H](C(C)C)NC(=O)[C@H](CC(C)C)NC(=O)[C@H](CCN)NC(=O)[C@@H](CC(C)C)NC(=O)[C@H](C)N(C)C1=O [Compound 1413] ({CH2CO}-[4Pal]Y(Carboxymethyl)DWV[Bip]I[NMeA][dL][Dab]LVTCA-NH2; thioether N-14)
5 | 100 | CC[C@H](C)[C@@H]1NC(=O)[C@H](Cc2ccc(-c3ccccc3)cc2)NC(=O)[C@H](C(C)C)NC(=O)[C@H](Cc2c[nH]c3ccccc23)NC(=O)[C@H](CC(=O)O)NC(=O)[C@H](Cc2ccc(O)cc2)NC(=O)[C@H](CN)NC(=O)CSC[C@@H](C(=O)N[C@@H](C)C(N)=O)NC(=O)[C@H]([C@@H](C)O)NC(=O)[C@H](C(C)C)NC(=O)[C@H](CC(C)C)NC(=O)[C@H](CCN)NC(=O)[C@@H](CC(C)C)NC(=O)[C@H](C)N(C)C1=O [Compound 1414] ({CH2CO}-[Dap]YDWV[Bip]I[NMeA][dL][Dab]LVTCA-NH2; thioether N-14)
6 | 40 | Cc1cccc(C[C@@H]2NC(=O)[C@H](CC(=O)O)NC(=O)[C@H](Cc3ccc(C(=O)O)cc3)NC(=O)[C@H](CN)NC(=O)CSC[C@@H](C(=O)N[C@@H](C)C(N)=O)NC(=O)[C@H]([C@@H](C)O)NC(=O)[C@H](C(C)C)NC(=O)[C@H](CC(C)C)NC(=O)[C@H](CCN)NC(=O)[C@@H](CC(C)C)NC(=O)[C@H](C)N(C)C(=O)[C@H](C(C)C)NC(=O)[C@H](Cc3ccc(-c4ccccc4)cc3)NC(=O)[C@H](C(C)C)NC2=O)c1 [Compound 1415] ({CH2CO}-[Dap][Phe(4-COOH)]D[Phe(3-Me)]V[Bip]V[NMeA][dL][Dab]LVTCA-NH2; thioether N-14)
7 | 10 | Cc1cccc(C[C@@H]2NC(=O)[C@H](CC(=O)O)NC(=O)[C@H](Cc3ccc(OCC(=O)O)cc3)NC(=O)[C@H](CN)NC(=O)CSC[C@@H](C(=O)N[C@@H](C)C(N)=O)NC(=O)[C@H]([C@@H](C)O)NC(=O)[C@H](C(C)C)NC(=O)[C@H](CC(C)C)NC(=O)[C@H](CCN)NC(=O)[C@@H](CC(C)C)NC(=O)[C@H](C)N(C)C(=O)[C@H](C(C)C)NC(=O)[C@H](Cc3ccc(-c4ccccc4)cc3)NC(=O)[C@H](C(C)C)NC2=O)c1 [Compound 1418] ({CH2CO}-[Dap]Y(Carboxymethyl)D[Phe(3-Me)]V[Bip]V[NMeA][dL][Dab]LVTCA-NH2; thioether N-14)

Second part, the compound before the results:

Row | SMILES | IC50 [nM]
8 | CC(C)C[C@@H]1NC(=O)[C@H](CCN)NC(=O)[C@@H](CC(C)C)NC(=O)[C@H](C)N(C)C(=O)[C@H](CCCNC(N)=O)NC(=O)[C@H](Cc2ccc(-c3ccccc3)cc2)NC(=O)[C@H](C(C)C)NC(=O)[C@H](Cc2c[nH]c3ccccc23)NC(=O)[C@H](CC(=O)O)NC(=O)[C@H](Cc2cccc(C#N)c2)NC(=O)[C@H](CN)NC(=O)CSC[C@@H](C(=O)N[C@@H](C)C(N)=O)NC(=O)[C@H]([C@@H](C)O)NC(=O)[C@H](C(C)C)NC1=O [Compound 1403] ({CH2CO}-[Dap][Phe(3-CN)]DWV[Bip][Cit][NMeA][dL][Dab]LVTCA-NH2; thioether N-14) | 130
9 | CC(C)C[C@@H]1NC(=O)[C@H](CCN)NC(=O)[C@@H](CC(C)C)NC(=O)[C@H](C)N(C)C(=O)[C@H](CCCNC(N)=O)NC(=O)[C@H](Cc2ccc(-c3ccccc3)cc2)NC(=O)[C@H](C(C)C)NC(=O)[C@H](Cc2c[nH]c3ccccc23)NC(=O)[C@H](CC(=O)O)NC(=O)[C@H](Cc2ccc(C(=O)O)cc2)NC(=O)[C@H](CN)NC(=O)CSC[C@@H](C(=O)N[C@@H](C)C(N)=O)NC(=O)[C@H]([C@@H](C)O)NC(=O)[C@H](C(C)C)NC1=O [Compound 1404] ({CH2CO}-[Dap][Phe(4-COOH)]DWV[Bip][Cit][NMeA][dL][Dab]LVTCA-NH2; thioether N-14) | 120
10 | CC[C@H](C)[C@@H]1NC(=O)[C@H](Cc2ccc(-c3ccccc3)cc2)NC(=O)[C@H](C(C)C)NC(=O)[C@H](Cc2c[nH]c3ccccc23)NC(=O)[C@H](CC(=O)O)NC(=O)[C@H](Cc2ccncc2)NC(=O)[C@H](CN)NC(=O)CSC[C@@H](C(=O)N[C@@H](C)C(N)=O)NC(=O)[C@H]([C@@H](C)O)NC(=O)[C@H](C(C)C)NC(=O)[C@H](CC(C)C)NC(=O)[C@H](CCN)NC(=O)[C@@H](CC(C)C)NC(=O)[C@H](C)N(C)C1=O [Compound 1405] ({CH2CO}-[Dap][4Pal]DWV[Bip]I[NMeA][dL][Dab]LVTCA-NH2; thioether N-14) | 30
11 | CC[C@H](C)[C@@H]1NC(=O)[C@H](Cc2ccc(-c3ccccc3)cc2)NC(=O)[C@H](C(C)C)NC(=O)[C@H](Cc2c[nH]c3ccccc23)NC(=O)[C@H](CC(=O)O)NC(=O)[C@H](Cc2cccc(OC)c2)NC(=O)[C@H](Cc2ccncc2)NC(=O)CSC[C@@H](C(=O)N[C@@H](C)C(N)=O)NC(=O)[C@H]([C@@H](C)O)NC(=O)[C@H](C(C)C)NC(=O)[C@H](CC(C)C)NC(=O)[C@H](CCN)NC(=O)[C@@H](CC(C)C)NC(=O)[C@H](C)N(C)C1=O [Compound 1406] ({CH2CO}-[4Pal][Phe(3-OMe)]DWV[Bip]I[NMeA][dL][Dab]LVTCA-NH2; thioether N-14) | 20
12 | CC[C@H](C)[C@@H]1NC(=O)[C@H](Cc2ccc(-c3ccccc3)cc2)NC(=O)[C@H](C(C)C)NC(=O)[C@H](Cc2c[nH]c3ccccc23)NC(=O)[C@H](CC(=O)O)NC(=O)[C@H](Cc2cccc(C#N)c2)NC(=O)[C@H](Cc2ccncc2)NC(=O)CSC[C@@H](C(=O)N[C@@H](C)C(N)=O)NC(=O)[C@H]([C@@H](C)O)NC(=O)[C@H](C(C)C)NC(=O)[C@H](CC(C)C)NC(=O)[C@H](CCN)NC(=O)[C@@H](CC(C)C)NC(=O)[C@H](C)N(C)C1=O [Compound 1407] ({CH2CO}-[4Pal][Phe(3-CN)]DWV[Bip]I[NMeA][dL][Dab]LVTCA-NH2; thioether N-14) | 40
13 | CC(C)C[C@@H]1NC(=O)[C@H](CCN)NC(=O)[C@@H](CC(C)C)NC(=O)[C@H](C)N(C)C(=O)[C@H](CCCNC(N)=O)NC(=O)[C@H](Cc2ccc(-c3ccccc3)cc2)NC(=O)[C@H](C(C)C)NC(=O)[C@H](Cc2c[nH]c3ccccc23)NC(=O)[C@H](CC(=O)O)NC(=O)[C@H](Cc2ccc(C#N)cc2)NC(=O)[C@H](CN)NC(=O)CSC[C@@H](C(=O)N[C@@H](C)C(N)=O)NC(=O)[C@H]([C@@H](C)O)NC(=O)[C@H](C(C)C)NC1=O [Compound 1408] ({CH2CO}-[Dap][Phe(4-CN)]DWV[Bip][Cit][NMeA][dL][Dab]LVTCA-NH2; thioether N-14) | 100
14 | CC[C@H](C)[C@@H]1NC(=O)[C@H](Cc2ccc(-c3ccccc3)cc2)NC(=O)[C@H](C(C)C)NC(=O)[C@H](Cc2c[nH]c3ccccc23)NC(=O)[C@H](CC(=O)O)NC(=O)[C@H](Cc2ccc(O)c([N+](=O)[O-])c2)NC(=O)[C@H](CN)NC(=O)CSC[C@@H](C(=O)N[C@@H](C)C(N)=O)NC(=O)[C@H]([C@@H](C)O)NC(=O)[C@H](C(C)C)NC(=O)[C@H](CC(C)C)NC(=O)[C@H](CCN)NC(=O)[C@@H](CC(C)C)NC(=O)[C@H](C)N(C)C1=O [Compound 1409] ({CH2CO}-[Dap][Tyr(3-NO2)]DWV[Bip]I[NMeA][dL][Dab]LVTCA-NH2; thioether N-14) | 40
15 | CC[C@H](C)[C@@H]1NC(=O)[C@H](Cc2ccc(-c3ccccc3)cc2)NC(=O)[C@H](C(C)C)NC(=O)[C@H](Cc2c[nH]c3ccccc23)NC(=O)[C@H](CC(=O)O)NC(=O)[C@H](Cc2ccncc2)NC(=O)[C@H](Cc2ccncc2)NC(=O)CSC[C@@H](C(=O)N[C@@H](C)C(N)=O)NC(=O)[C@H]([C@@H](C)O)NC(=O)[C@H](C(C)C)NC(=O)[C@H](CC(C)C)NC(=O)[C@H](CCN)NC(=O)[C@@H](CC(C)C)NC(=O)[C@H](C)N(C)C1=O [Compound 1410] ({CH2CO}-[4Pal][4Pal]DWV[Bip]I[NMeA][dL][Dab]LVTCA-NH2; thioether N-14) | 20

Reference: patent publication US20240409585A1, “MACROCYCLIC IMMUNOMODULATORS” (priority 2021, published 2024)
